Assay results from PMC4305368, “Influence of Dimerization of Lipopeptide Laur-Orn-Orn-Cys–NH2 and an N-terminal Peptide of Human Lactoferricin on Biological Activity” (International Journal of Peptide Research and Therapeutics, 2014).
Where two headings read alike, the source gives them in different places. Bridge positions count the residues as written; N and C are the ends. Square brackets hold non-standard residues; d marks the D form. Ends that are not written are not given here. Peptide text beside a SMILES is read from it. I, II: the chains in the order shown. * marks the point of attachment. X1 = CCCCCCCCCCCC(=O)N[C@@H](CCCN)C(=O)N[C@@H](CCCN)C(=O)N[C@@H](CS*)C(N)=O; Lauroyl = CCCCCCCCCCCC(=O)*; Orn = NCCC[C@H](N)C(=O)O

Columns and labels:
[1] = tested on: E. coli ATCC 8739; type: cell-based, Escherichia coli
Experimental: (§1) The reference strains were supplied by the Polish Collection of Microorganisms (Polish Academy of Sciences, Institute of Immunology and Experimental Therapy, Wroclaw, Poland). Minimal inhibitory concentration (MIC) was determined by the microbroth dilution method outlined by the National Committee for Clinical Laboratory Standards ([2003]). The following microbial strains were tested: Gram-positive: Rhodococcus equi ATCC 6939, Staphylococcus epidermidis, S. aureus ATCC 6538, Streptococcus pyogenes and Enterococcus faecalis; Gram-negative: E. coli ATCC 8739, Pseudomonas aeruginosa and fungi: C. albicans ATCC10231. Bacteria were suspended in Mueller–Hinton II broth (Sigma-Aldrich) at initial inocula of 5 × 10^5 cfu (colony-forming units)/mL, while the Sabouraud 5 % dextrose broth of a pH of 7.4 (Sigma-Aldrich) was used for fungi (at initial inoculum of 5 × 10^3 cfu/mL). Microbial cells in polystyrene 96-well plates were exposed to the peptides at adequate concentrations (range 1–512 μg/mL) for 18 h at 37 °C (bacterial strains) or for 48 h at 25 °C (fungi). MIC was taken as the lowest drug concentration at which observable growth was inhibited. Experiments were performed in triplicate on three different days.

[2] = tested on: C. albicans ATCC10231; type: cell-based, Candida albicans
Experimental: as §1

[3] = tested on: Rhodococcus equi ATCC 6939; type: cell-based
Experimental: as §1

[4] = tested on: Enterococcus faecalis; type: cell-based
Experimental: as §1

[5] = tested on: Pseudomonas aeruginosa; type: cell-based
Experimental: as §1

[6] = tested on: Staphylococcus epidermidis; type: cell-based
Experimental: as §1

[7] = tested on: Streptococcus pyogenes; type: cell-based
Experimental: as §1

[8] = tested on: S. aureus ATCC 6538; type: cell-based, Staphylococcus aureus
Experimental: as §1

[9] = tested on: human red blood cells; experiment: Haemolysis assay; type: cell-based; settings: human red blood cells 4 % [v/v] in PBS, 2 h at 37 °C, range 1-512 µg/mL, assessed visually; 1 % Triton positive control
Experimental: The haemolytic activity of the peptides was tested against human red blood cells, essentially as described previously (Kamysz et al. [2007]). Fresh human blood was collected into tubes containing EDTA as anticoagulant. Red blood cells were separated by centrifugation at 500×g for 12 min at room temperature and the plasma was aspirated. Erythrocytes were washed three times with PBS, separated by centrifugation (500×g, 12 min) and resuspended in PBS. Peptides I–V were serially diluted in PBS (range 1–512 μg/mL) and 50 μL was added to 50 μL of the erythrocyte suspension. The final concentration of red blood cells was 4 % [v/v]. The results were assessed visually after incubation for 2 h at 37 °C. As a positive control, 1 % Triton was used, whereas PBS served as a negative control.

Row | Compound | Antimicrobial activity (MIC) ([1]; ATCC 8739, 18 h) [µg/mL] | Antimicrobial activity (MIC) ([2]; ATCC10231, 48 h, pH 7.4) [µg/mL] | Antimicrobial activity (MIC) ([3]; ATCC 6939, 18 h) [µg/mL] | Antimicrobial activity (MIC) ([4]; 18 h) [µg/mL] | Antimicrobial activity (MIC) ([5]; 18 h) [µg/mL] | Antimicrobial activity (MIC) ([6]; 18 h) [µg/mL] | Antimicrobial activity (MIC) ([7]; 18 h) [µg/mL] | Antimicrobial activity (MIC) ([8]; ATCC 6538, 18 h) [µg/mL] | Antimicrobial activity (MIC) ([1]; Escherichia coli, Mueller-Hinton II broth, 5 × 10^5 cfu/mL, 18 h at 37 °C, range 1-512 µg/mL, triplicate on three different days) [µg/mL] | Antimicrobial activity (MIC) ([2]; Candida albicans, Sabouraud 5 % dextrose broth pH 7.4, 5 × 10^3 cfu/mL, 48 h at 25 °C, range 1-512 µg/mL, triplicate on three different days) [µg/mL] | Haemolytic activity [9] [µg/mL] | Antimicrobial activity (MIC) ([3]; Rhodococcus equi, Mueller-Hinton II broth, 5 × 10^5 cfu/mL, 18 h at 37 °C, range 1-512 µg/mL, triplicate on three different days) [µg/mL] | Antimicrobial activity (MIC) ([4]; Enterococcus faecalis, Mueller-Hinton II broth, 5 × 10^5 cfu/mL, 18 h at 37 °C, range 1-512 µg/mL, triplicate on three different days) [µg/mL] | Antimicrobial activity (MIC) ([5]; Pseudomonas aeruginosa, Mueller-Hinton II broth, 5 × 10^5 cfu/mL, 18 h at 37 °C, range 1-512 µg/mL, triplicate on three different days) [µg/mL] | Antimicrobial activity (MIC) ([6]; Staphylococcus epidermidis, Mueller-Hinton II broth, 5 × 10^5 cfu/mL, 18 h at 37 °C, range 1-512 µg/mL, triplicate on three different days) [µg/mL] | Antimicrobial activity (MIC) ([7]; Streptococcus pyogenes, Mueller-Hinton II broth, 5 × 10^5 cfu/mL, 18 h at 37 °C, range 1-512 µg/mL, triplicate on three different days) [µg/mL] | Antimicrobial activity (MIC) ([8]; Staphylococcus aureus, Mueller-Hinton II broth, 5 × 10^5 cfu/mL, 18 h at 37 °C, range 1-512 µg/mL, triplicate on three different days) [µg/mL]
1 | CCCCCCCCCCCC(=O)N[C@@H](CCCN)C(=O)N[C@@H](CCCN)C(=O)N[C@@H](CSSC[C@H](NC(=O)[C@H](CCCN)NC(=O)[C@H](CCCN)NC(=O)CCCCCCCCCCC)C(N)=O)C(N)=O [Peptide IV] (I: Lauroyl-[Orn]-[Orn]-Cys-NH2 / II: Lauroyl-[Orn]-[Orn]-Cys-NH2; disulfide I:3-II:3) | 8 | >512 | 1 | 4 | 4 | 2 | 2 | 2 | – | – | – | – | – | – | – | – | –
2 | CCCCCCCCCCCC(=O)N[C@@H](CCCN)C(=O)N[C@@H](CCCN)C(=O)N[C@@H](CSSC[C@H](NC(=O)[C@H](Cc1c[nH]c2ccccc12)NC(=O)[C@H](CCC(N)=O)NC(=O)[C@@H](NC(=O)[C@H](CO)NC(=O)[C@H](CCCNC(=N)N)NC(=O)[C@H](CCCNC(=N)N)NC(=O)[C@H](CCCNC(=N)N)NC(=O)[C@H](CCCNC(=N)N)NC(=O)CN)C(C)C)C(=O)N[C@@H](C)C(N)=O)C(N)=O [Peptide V] (H-GRRRRSVQWC(X1)A-NH2; N-terminus assumed) | 128 | >512 | 2 | 32 | 8 | 1 | 2 | 4 | – | – | – | – | – | – | – | – | –
3 | GRRRRSVQWCA-NH2 [Peptide I, hLF(1–11)–NH2] | – | – | – | – | – | – | – | – | 512 | 128 | >512 | 16 | 256 | 32 | 2 | 2 | 64
4 | CCCCCCCCCCCC(=O)N[C@@H](CCCN)C(=O)N[C@@H](CCCN)C(=O)N[C@@H](CS)C(N)=O [Peptide III, Laur-Orn-Orn-Cys–NH2] (Lauroyl-[Orn]-[Orn]-Cys-NH2) | 8 | 128 | 2 | 2 | 8 | 2 | 4 | 2 | – | – | – | – | – | – | – | – | –
